Assay results: patent US8173767B2, “Synthetic peptide vaccines for HIV: the CBD epitope as an effective immunogen to elicit broadly neutralizing antibodies against HIV” (Institut Pasteur, priority 2003, dated 2012)
Ends that are not written are not given here. * marks the point of attachment. Biotin = O=C1N[C@H]2[C@H](CS[C@H]2CCCCC(=O)*)N1

Columns and labels:
HeLa cells = test: Entry of the CBD-1 peptide into cells (confocal immunofluorescence microscopy); assay type: cell-based
Experimental: (§1) Several studies in laser scanning confocal immunofluorescence microscopy were conducted to investigate the interaction of the CBD-1 peptide with cells and its effect on Midkine. […] Midkine binds its low affinity receptor, surface-expressed nucleolin, before entry into cells by an active process in which lipid rafts appear to be implicated (34).
On intact cells, the CBD-1 peptide appeared to interact with caveolin at the plasma membrane.
HeLa cells in culture medium were incubated (45 min at 37° C.) with the biotinylated CBD-1 peptide (5 μM). Cells were then washed and fixed with paraformaldehyde/Triton X-100 solution. […] The secondary antibody was Texas Red dye-conjugated donkey anti-rabbit IgG (Jackson ImmunoResearch Laboratories, PA). Confocal microscopy was performed as described previously (6).

[1] = tested on: rabbits (Fauves de Bourgogne); test: ELISA of sera from rabbit immunized with the CBD-1 peptide (plates coated with CBD-1); assay type: in vivo
Experimental: The biotinylated CBD-1 peptide was solubilized in water containing 10% DMSO at a concentration of 2 mg/ml. 100 μg of this solution (50 μl) was mixed with 50 μg of streptavidin in 250 μl of distilled water. This solution was then mixed with 250 μl of complete Freund's adjuvant (CFA) for the first injection and incomplete Freund's adjuvant (IFA) for the following injections. 10 ml of blood was collected from the rabbits before the first injection of antigen; this serum was referred to as S0 or pre-immune serum.
The rabbits (Fauves de Bourgogne) were injected intramuscularly with 500 μl of the antigen/adjuvant mixture. The following Table 1 presents the injection and bleeding dates of the rabbit named “Aldernay”:
All sera were tested by ELISA using 2 types of plates (PVC and Maxisorp) coated with the CBD-1 peptide. The optical density (OD) was measured at 450 nm. An OD value above 0.20 was considered positive.

Midkine = test: Effect of the CBD-1 peptide on Midkine binding and entry into cells (confocal microscopy); assay type: cell-based
Experimental: as §1

[2] = tested on: rabbits (Fauves de Bourgogne); test: ELISA of sera from rabbit immunized with the C-20 peptide (plates coated with C-20); assay type: in vivo; conditions: rabbit Hermione; after the first 2 injections; serum dilution 1/2000
Experimental: A biotinylated C-20 peptide was synthesized as in Example 2. After synthesis the biotinylated C-20 peptide was solubilized in water containing 10% DMSO at a concentration of 2 mg/ml. 100 μg of this solution (corresponding to 50 μl) was mixed with 50 μg of streptavidin in 250 μl distilled water. This solution was then mixed with 250 μl of adjuvant; complete Freund's adjuvant (CFA) for the first injection and incomplete Freund's adjuvant (IFA) for the following injections. Rabbits (Fauves de Bourgogne) were injected intramuscularly with 500 μl of the antigen/adjuvant mixture. 10 ml of blood was collected from the rabbits before the first injection of antigen. This serum is referred to as S0 or pre-immune serum.
All sera were tested by ELISA using 2 types of plates (PVC and Maxisorp) coated with the C-20 peptide.

caveolin = target: T1, caveolin (Homo sapiens, UniProt Q03135); test: Binding of biotinylated CBD-1 to caveolin in crude MT4 cell extracts (avidine-sepharose, immunoblot)
T1 construct: endogenous in cells
T1 sequence (Q03135 1-178): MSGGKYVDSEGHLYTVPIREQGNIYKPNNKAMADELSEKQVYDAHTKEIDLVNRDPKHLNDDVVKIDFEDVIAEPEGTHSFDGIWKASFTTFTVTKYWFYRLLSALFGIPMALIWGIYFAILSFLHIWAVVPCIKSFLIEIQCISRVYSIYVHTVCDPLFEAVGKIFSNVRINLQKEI
Experimental: MT4 cells were extracted in buffer containing 10 mM Hepes, pH 7.6, 50 mM KCl, 400 mM NaCl, 1 mM EDTA, protease inhibitor cocktail and 1% Triton X-100®. Extracts were centrifuged at 12,000×g and the supernatants were stored at […]. 100 μl of cell extracts were first diluted with 400 μl of homogenization buffer and left at 4° C. for 10 minutes before centrifuging at 12,000×g.
The diluted supernatants were then incubated at 4° C. in the presence of 0, 2, 5, 10 and 20 μM of the biotinylated CBD-1 peptide. After 90 minutes, 100 μl of avidine-sepharose were added in each sample and the samples were further incubated at 4° C. for 2 hours with gentle shaking. The samples were then washed extensively with PBS and proteins bound to avidine-sepharose were eluted in 100 μl of electrophoresis sample buffer containing SDS and analyzed by SDS-PAGE (using a 12.5% polyacrylamide gel) for immunoblotting with rabbit anti-caveolin 1 antibodies ([…]) as previously described (6).
Cell extracts were first incubated with 50 μM of CBD-1 (+) or without CBD-1 (−) before the addition of 10 μM biotinylated CBD-1 and further processed as above. Lane E represents the analysis of crude cell extracts diluted 1-fold in the electrophoresis sample buffer. […]

**Q.** For “L-E-Q-I-W-N-N-M-T-W-M-Q-W-D-K (LEQIWNNMTWMQWDK) [CBD-1 peptide]”, which “entry of the peptide into cells” value (HeLa cells; dependence on incubation temperature) is on record?
**A.** occurred at 37 °C but not at 20 °C

**Q.** And the “antibodies against CBD-1 in serum (ELISA)” value ([1]; after the first 3 injections, serum dilution 1/2,000)?
**A.** significant amount of antibodies against CBD-1

**Q.** What about the “immunogenicity of the peptide (anti-CBD-1 antibodies in serum, ELISA)” value ([1]; rabbit Aldernay, intramuscular, biotinylated peptide with streptavidin in CFA/IFA, OD 450 nm above 0.20 positive) of the same substance?
**A.** immunogenic

**Q.** And the “Midkine binding to cells” value (Midkine)?
**A.** without affecting Midkine binding to cells

**Q.** And the “entry of Midkine into cells” value (Midkine)?
**A.** blocks entry of Midkine into cells

**Q.** With “DGIWKASFTTFTVTKYWFYR (DGIWKASFTTFTVTKYWFYR) [C-20 peptide]” as the substance, how does the “antibodies against C-20 in serum (ELISA)” value [2] read?
**A.** significant amount of antibodies against C-20

**Q.** Which results are given for “biotinylated CBD-1: CBD-1 peptide with a biotinyl moiety coupled at the N terminus (Biotin-LEQIWNNMTWMQWDK)”?
**A.** localization of the peptide in cells (HeLa cells; HeLa cells, 5 μM, 45 min at 37° C.): localized in the cytoplasm; caveolin purified from crude extracts with the biotinylated peptide (caveolin; 0, 2, 5, 10 and 20 μM biotinylated CBD-1, 4° C.): in a dose dependent manner; capacity to bind caveolin in the presence of excess CBD-1 (caveolin; 50 μM CBD-1 before 10 μM biotinylated CBD-1): reduced capacity
